According to article PMC6204216 (Archives of biochemistry and biophysics, 2018):
Read-outs that look alike come from different tables or passages of the source.

How the values were obtained:
AChE [1] = biological target: T1, AChE (Homo sapiens, UniProt P22303); assay: Carbamoylation of AChE, qualitative observations; type: biochemical
Target sequence in this assay (P22303 32-614): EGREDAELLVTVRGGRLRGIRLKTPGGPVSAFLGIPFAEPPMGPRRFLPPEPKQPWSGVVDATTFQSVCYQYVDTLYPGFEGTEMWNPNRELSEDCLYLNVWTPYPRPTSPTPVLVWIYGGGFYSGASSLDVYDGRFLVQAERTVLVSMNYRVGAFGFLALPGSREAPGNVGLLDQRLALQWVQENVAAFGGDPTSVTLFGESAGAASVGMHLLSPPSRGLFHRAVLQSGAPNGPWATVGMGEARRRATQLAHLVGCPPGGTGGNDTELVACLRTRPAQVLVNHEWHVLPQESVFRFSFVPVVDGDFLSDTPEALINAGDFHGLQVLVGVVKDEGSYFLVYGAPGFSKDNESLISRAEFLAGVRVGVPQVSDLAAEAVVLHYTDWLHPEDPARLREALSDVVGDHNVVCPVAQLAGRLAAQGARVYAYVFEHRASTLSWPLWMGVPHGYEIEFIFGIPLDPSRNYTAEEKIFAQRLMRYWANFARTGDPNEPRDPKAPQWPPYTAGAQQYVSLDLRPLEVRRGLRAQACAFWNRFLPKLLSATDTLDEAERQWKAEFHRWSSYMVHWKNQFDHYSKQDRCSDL

[2] = Stability of aqueous solutions; type: physicochemical
AChE [3] = biological target: T1, AChE; conditions: after carbamoylation of hAChE; cited from earlier work
Target sequence in this assay (P22303 32-617 isoform P22303-2 limits assumed): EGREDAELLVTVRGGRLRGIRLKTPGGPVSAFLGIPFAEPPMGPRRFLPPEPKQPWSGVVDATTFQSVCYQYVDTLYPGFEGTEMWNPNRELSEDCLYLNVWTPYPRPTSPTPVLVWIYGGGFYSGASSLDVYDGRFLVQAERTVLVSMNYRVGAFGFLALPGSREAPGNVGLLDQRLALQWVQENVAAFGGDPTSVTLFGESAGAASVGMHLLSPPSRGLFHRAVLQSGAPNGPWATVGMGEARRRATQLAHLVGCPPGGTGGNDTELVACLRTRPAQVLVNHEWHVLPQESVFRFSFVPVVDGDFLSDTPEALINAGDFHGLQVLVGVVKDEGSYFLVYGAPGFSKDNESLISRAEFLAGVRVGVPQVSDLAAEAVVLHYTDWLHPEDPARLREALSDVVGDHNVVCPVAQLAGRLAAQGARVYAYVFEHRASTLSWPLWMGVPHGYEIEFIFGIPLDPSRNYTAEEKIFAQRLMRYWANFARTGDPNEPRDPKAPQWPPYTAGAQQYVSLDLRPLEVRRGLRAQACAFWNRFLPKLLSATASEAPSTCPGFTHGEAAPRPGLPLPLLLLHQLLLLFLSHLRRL

AChE [4] = biological target: T1, AChE; conditions: for k21 × 10^6 (decarbamoylation rate constant): 25 °C, absence of carbamate, mean ± SEM of n measurements
Target sequence in this assay (P22303 32-617 isoform P22303-2 limits assumed): as above

AChE [5] = biological target: T1, AChE; type: biochemical
Target sequence in this assay (P22303 32-617 isoform P22303-2 limits assumed): as above

AChE [6] = biological target: T1, AChE; assay: Solvent deuterium oxide kinetic isotope effect on decarbamoylation; type: biochemical; conditions: 25 °C, pH 7.0, mean ± SE
Target sequence in this assay (P22303 32-617 isoform P22303-2 limits assumed): as above

AChE [7] = biological target: T1, AChE; conditions: cited from earlier work
Target sequence in this assay (P22303 32-614): as the sequence (P22303 32-614) above

AChE in rat brain = conditions: in vivo, 37 °C; cited from earlier work
AChE [8] = biological target: T1, AChE; assay: Literature carbamoylation and decarbamoylation of AChE; type: biochemical
Target sequence in this assay (P22303 32-614): as above

[9] = k12 data fitted to Eq. 1a, 25 °C

CCN(C)C(=O)Cl [EMCC, N-ethyl–N-methylcarbamoyl chloride]
Carbamoylation of AChE (AChE [1]): poorly
Stability of aqueous solutions [2]: very unstable

C[C@@H]1CN(CCCCCCCCNC(=O)Oc2ccc3c(c2)[C@]2(C)CCN(C)[C@@H]2N3C)C[C@H](C)O1 [MF268]
k21 (AChE [3]): too small to be measured

CNC(=O)Oc1cccc([N+](C)(C)C)c1 [Monomethyl neostigmine]
k21 × 10^6 (decarbamoylation rate constant) (AChE [4]; second protocol): 12300 ± 400 min^−1
R (fraction of total enzyme carbamoylated at reaction initiation) (AChE [4]; after spin column, Figure 3 fit): 0.90
k21 (AChE [4]; second protocol, Figure 3a fit, 0.25 mM acetylthiocholine): 12.9 ± 0.02 × 10^−3 min^−1
k21 (AChE [5]; first protocol, Figure 2, paper calls estimates below 0.01 min^−1 unreliable): 0.013 min⁻¹
k2/KD (AChE [5]; fitted to Eq. 1a): 16 ± 2 min^−1μM^−1
Kd (AChE [5]; [9]): 3.2 ± 0.4 µM
k2 (carbamoylation) (AChE [5]; [9]): 51 ± 2 min⁻¹
k21 ^H2O / k21^D2O (deuterium oxide kinetic isotope effect on k21) (AChE [6]; listed as N-monomethyl HTMA): 2.8 ± 0.2
k21 ^H2O / k21^D2O (deuterium oxide kinetic isotope effect on k21) (AChE [6]; listed as N-monomethyl neostigmine): 2.8

CCN(CC)C(=O)F [N,N-diethyl F, N,N-diethylcarbamoyl fluoride]
Formation of N,N-diethylcarbamoylated AChE (AChE [7]): failed to detect
k21 × 10^6 (decarbamoylation rate constant) (AChE [4]; second protocol): 7 ± 1 min^−1
Recovery half time of AChE (AChE in rat brain): 182 h

CCN(CC)C(=O)Oc1cccc([N+](C)(C)C)c1 [N,N-diethyl HTMA]
k21 × 10^6 (decarbamoylation rate constant) (AChE [4]; second protocol): 16 ± 5 min^−1
k21 ^H2O / k21^D2O (deuterium oxide kinetic isotope effect on k21) (AChE [6]): 1.1 ± 0.2

CCN(CC)C(=O)OCC[N+](C)(C)C [N,N-diethylcarbamoyl choline, reference compound]
Formation of N,N-diethylcarbamoylated AChE (AChE [7]): failed to detect

CCN(C)C(=O)Oc1cccc([N+](C)(C)C)c1 [N-ethyl-N-methyl HTMA]
k21 × 10^6 (decarbamoylation rate constant) (AChE [4]; second protocol): 150 ± 20 min^−1
k21 ^H2O / k21^D2O (deuterium oxide kinetic isotope effect on k21) (AChE [6]): 1.8 ± 0.2

C[N+](C)(C)CCOC(N)=O [carbamoyl choline]
k21 larger than that for N-monomethylcarbamoylated AChE (AChE [8]): 10 fold

CNC(=O)Oc1cccc2ccccc12 [carbaryl, reference compound]
k21 × 10^6 (decarbamoylation rate constant) (AChE [4]; second protocol): 11300 ± 600 min^−1

CN(C)C(=O)Oc1cccc([N+](C)(C)C)c1 [neostigmine, reference compound]
k21 × 10^6 (decarbamoylation rate constant) (AChE [4]; second protocol): 3600 ± 300 min^−1
k21 ^H2O / k21^D2O (deuterium oxide kinetic isotope effect on k21) (AChE [6]): 2.4 ± 0.2
